Results taken from PMC6514909, “Synthesis of New Derivatives of Benzofuran as Potential Anticancer Agents” (Molecules, 2019).
Entries after “also recorded” stand apart in the source; their conditions may differ. Each block holds one compound with its values, some of them ahead of it.

Tests used:
[1] = test system: cancer cell lines; assay: MTT cytotoxicity, cancer cell lines overall; type: cell-based, human; conditions: for cytotoxic properties toward cancer cell lines: K562, MOLT-4, HeLa, MTT, 48 h
Experimental: (§1) Fourteen new benzofuran derivatives were tested for their cytotoxic properties in K562, MOLT-4 (leukemia, suspension cells), HeLa (cervix carcinoma, adherent cells), and normal endothelial cells (HUVEC). First, we measured the viability of cells after 48 h incubation with the given compound at the concentration of 100 μM. Next, for compounds that reduced cancer cells survival for more than 50%, we determined IC50 values. Cells that were exposed to 1% DMSO (a vehicle) served as the control with 100% survival. Cells treated with 1 µM staurosporine served as the internal control of the cytotoxicity experiments.
(§2) Human umbilical vein endothelial cells (Life Technologies, Waltham, MA, USA) were cultured (according to the manufacturer instructions) in Medium 200 supplemented with Low Serum Growth Supplement. 1 × 10^4 HUVEC cells were seeded on each well on a 96-well plate (Nunc). The HeLa (human cervix carcinoma) K562 and MOLT-4 (leukemia) cells were cultured in RPMI 1640 medium supplemented with antibiotics and 10% fetal calf serum (HeLa, K562) in a 5% CO2-95% air atmosphere. 7 × 10^3 HeLa, K562, or MOLT-4 cells were seeded on each well on 96-well plate (Nunc). 24 h later cells were treated with the test compounds and then incubated for an additional 48 hours. Stock solutions of test compounds were freshly prepared in DMSO (dimethylsulfoxide). The final concentrations of compounds that were tested in the cell cultures were: 2 × 10^−1, 1 ×10^−1, 5 × 10^−2, 1 × 10^−2, 1 × 10^−3 and 1 × 10^−4 mM. The concentration of DMSO in the cell culture medium was 1%.
(§3) The values of IC50 (the concentration of test compound that is required to reduce the cell survival fraction to 50% of the control) were calculated from dose-response curves and used as a measure of cellular sensitivity to a given treatment.
(§4) The MTT [3-(4,5-dimethylthiazol-2-yl)-2,5-diphenyltetrazolium bromide; Sigma, St. Louis, MO, USA] assay determined the cytotoxicity of all the compounds, as described previously. Briefly, after 24 h or 48 h of incubation with the drug, the cells were treated with the MTT reagent, and incubation was continued for 2 h. MTT-formazan crystals were dissolved in 20% SDS and 50% DMF at pH 4.7 and absorbance was read at 570 and 650 nm on an ELISA-PLATE READER (FLUOstar Omega, BMG LABTECH GmbH, Ortenberg, Germany). As a control (100% viability), cells that were grown in the presence of medium vehicle only with 1% DMSO were used.

[2] = test system: HeLa (human cervix carcinoma) cells; assay: MTT cytotoxicity assay, HeLa; type: cell-based; conditions: for IC50: Homo sapiens, HeLa, 48 h incubation with cells, MTT; for reduction of viability of HeLa cells: initial screening, 100 μM, 48 h
Experimental: as §1, §2, §3, §4

[3] = test system: K562 (leukemia) cells; assay: MTT cytotoxicity assay, K562; type: cell-based, human; conditions: for IC50: 48 h incubation with cells, MTT; for reduction of viability of K562 cells: initial screening, 100 μM, 48 h
Experimental: as §1, §2, §3, §4

[4] = test system: MOLT-4 (leukemia) cells; assay: MTT cytotoxicity assay, MOLT-4; type: cell-based, human; conditions: for IC50: Homo sapiens, MOLT-4, 48 h incubation with cells, MTT; for reduction of viability of MOLT-4 cells: initial screening, 100 μM, 48 h
Experimental: as §1, §2, §3, §4

[5] = test system: Human umbilical vein endothelial cells (HUVEC); assay: MTT cytotoxicity assay, HUVEC; type: cell-based; conditions: for IC50: Homo sapiens, HUVEC, 48 h incubation with cells, MTT; for cytotoxicity against human normal endothelial cells: initial screening, 100 μM, 48 h
Experimental: as §1, §2, §3, §4

[6] = test system: caspase 3/7 in K562 cells; assay: Apo-ONE Homogeneous Caspase-3/7 Assay in K562 cells; type: cell-based, human; conditions: compound at 5 × IC50 (staurosporine 1 µM), 18 h, 1% DMSO normalized to 1.0
Experimental: We have measured the activity of caspases 3 and 7 (caspase 3/7), which are markers of programmed cell death. […] The activity of caspase 3/7 was measured using pro-fluorescent peptide substrate.
20 × 10^3 K562 cells were seeded on each well of 96-well plate in RPMI 1640 medium supplemented with 10% fetal calf serum and antibiotics. Cells were grown for 24 h at 37 °C and 5% CO2. The test compounds were dissolved in DMSO and added to the cell culture. The concentration of tested benzo[b]furans in cell culture was 5 × IC50.
Cells treated with 1% DMSO served as a negative control, while cells incubated with staurosporine (a strong inducer of apoptosis) were used as a positive control. Cells were exposed to test compounds for 18 h at 37 °C and 5% CO2. Subsequently, Apo-ONE® Homogeneous Caspase-3/7 Assay (Promega, Madison, WI, USA) measured the activity of caspase 3 and 7, according to the manufacturer’s instructions. Briefly, the cells were lysed and incubated for 1.5 h with profluorescent substrate for caspase 3 and 7. Next, fluorescence was read at an excitation wavelength of 485 nm and emission of 520 nm with FLUOStar Omega plate reader (BMG-Labtech, Ortenberg, Germany).
Figure 5 Activity of caspase 3 and 7 in K562 cells treated with the test benzofurans 1c, 1e, 2d, 3d, or staurosporine for 18 h. Apoptosis was determined by Apo-ONE® Homogeneous Caspase-3/7 Assay (Promega, Madison, WI, USA). Abbreviations: DMSO—K562 cells treated with 1% DMSO. The caspase activation level in cells exposed to 1% DMSO was normalized to 1.0. Mean values +/− SD are shown.

[7] = test system: plasmid DNA (pcDNA3.1 HisC); assay: Digestion of plasmid DNA with BamHI restriction nuclease; type: biochemical; conditions: 100 µM, overnight 37 °C, then BamHI 3 h; agarose gel
From the text: We hypothesized that a possible explanation of observed cytotoxicity might be due to an interaction of test benzofurans with genomic DNA (e.g., by intercalation). To verify this hypothesis, we investigated whether the test benzofurans have any effect on digestion of a plasmid DNA (pcDNA3.1 HisC) with endonuclease BamH1. pcDNA3.1 HisC contains a unique BamH1 restriction site which allows for plasmid linearization. Plasmid DNA exists in linear, superhelical, and circular forms that differ in electrophoretic mobility (Figure 6 lane 1). Plasmid DNA was converted to a linear form upon digestion with BamH1 (lane 2). […] In the presence of test compounds, pcDNA3.1 HisC was partially digested with Bam H1 restriction enzyme (Figure 6 lanes 4–7). Most of the plasmid DNA was converted to a linear form, however there is a circular form still present.
0.5 μg of plasmid DNA (pcDNAHisC, total length 5.5 kbp) containing a unique BamHI restriction site was dissolved in a 1× BamHI reaction buffer and then incubated overnight at 37 °C with the test compounds or daunorubicin, a strong intercalating agent, which was used as a positive control. The concentration of the test compounds and daunorubicin samples was 100 µM. In the next step, the reaction mixtures were digested with BamHI restriction endonuclease (2 U/μL) for 3 h at 37 °C. The total reaction volume was 10 μL. Products of the reaction were subjected to the 1% agarose gel electrophoresis in TBE buffer. The gel was stained with ethidium bromide and DNA fragments were visualized under a UV lamp (GBox, Syngene, Cambridge, UK).
Figure 6 Digestion of pcDNA3.1HisC (total length 5.5kbp) with BamH1 endonuclease. M—marker DNA; 1—not digested plasmid DNA; 2—plasmid DNA digested with BamH1 (DNA present in linear form); 3—plasmid DNA + daunorubicin + BamH1; 4—plasmid DNA + 1c + BamH1; 5—plasmid DNA + 2d + BamH1; 6—plasmid DNA + 1e + BamH1; and, 7—plasmid DNA + 3d + BamH1.

- melting point: 212 to 214 °C
SMILES: COc1cc2c(C)c(C(=O)O)oc2c(C(C)=O)c1OC [Compound 1, 7-Acetyl-5,6-dimethoxy-3-methylbenzofuran-2-carboxylic acid]

- melting point: 203 to 205 °C
SMILES: COc1cc2c(C)c(C(N)=O)oc2c(C(C)=O)c1OC [Compound 1a, 7-Acetyl-5,6-dimethoxy-3-methylbenzofuran-2-carboxamide]
- cytotoxic properties toward cancer cell lines [1]: did not show the cytotoxic properties; also recorded: loss of cytotoxic properties

- melting point: 98 to 100 °C
SMILES: COC(=O)c1oc2c(C(C)=O)c(OC)c(OC)cc2c1C [Compound 1b, Methyl 7-acetyl-5,6-dimethoxy-3-methyl-1-benzofuran-2-carboxylate]

SMILES: COC(=O)c1oc2c(C(C)=O)c(OC)c(OC)cc2c1CBr [Compound 1c, Methyl 7-acetyl-3-(bromomethyl)-5,6-dimethoxybenzofuran-2-carboxylate]
- IC50 [2]: 50 µM
- reduction of viability of HeLa cells [2]: more than 50%
- IC50 [3]: 25 µM
- IC50 ([3]; Homo sapiens, K562, 48 h): < 50 µM
- reduction of viability of K562 cells [3]: more than 50%
- IC50 [4]: 180 µM
- reduction of viability of MOLT-4 cells [4]: more than 50%
- IC50 [5]: 30 µM
- cytotoxicity against human normal endothelial cells [5]: cytotoxic
- increase in the activity of caspase 3/7 [6]: about two-fold
- inhibition of digestion of plasmid DNA with BamH1 / interaction with DNA [7]: to some extent, interact with DNA

- melting point: 94 to 95 °C
SMILES: COc1cc2c(C)c(Br)oc2c(C(C)=O)c1OC [Compound 1d, 1-(2-Bromo-5,6-dimethoxy-3-methylbenzofuran-7-yl)ethanone]

SMILES: COc1cc2c(C)c(Br)oc2c(C(=O)CBr)c1OC [Compound 1e, 2-Bromo-1-(2-bromo-5,6-dimethoxy-3-methylbenzofuran-7-yl)ethanone]
- IC50 [2]: 28 µM
- reduction of viability of HeLa cells [2]: more than 50%
- IC50 [3]: 41 µM
- IC50 ([3]; Homo sapiens, K562, 48 h): < 50 µM
- reduction of viability of K562 cells [3]: more than 50%
- IC50 [4]: 70 µM
- reduction of viability of MOLT-4 cells [4]: more than 50%
- IC50 [5]: 30 µM
- cytotoxicity against human normal endothelial cells [5]: cytotoxic
- increase in the activity of caspase 3/7 [6]: five-fold
- inhibition of digestion of plasmid DNA with BamH1 / interaction with DNA [7]: to some extent, interact with DNA

SMILES: CC(=O)c1cc2oc(C)c(C(N)=O)c2cc1O [Compound 2a, 6-Acetyl-5-hydroxy-2-methylbenzofuran-3-carboxamide]
- cytotoxic properties toward cancer cell lines [1]: did not show the cytotoxic properties; also recorded: loss of cytotoxic properties

SMILES: CC(=O)c1cc2oc(C)c(C(N)=O)c2c(Br)c1O [Compound 2b, 6-Acetyl-4-bromo-5-hydroxy-2-methylbenzofuran-3-carboxamide]
- cytotoxic properties toward cancer cell lines [1]: loss of cytotoxic properties

- melting point: 196 to 197 °C
SMILES: CC(=O)c1cc2oc(C)c(C(=O)O)c2c(Br)c1O [Compound 2e, 6-Acetyl-4-bromo-5-hydroxy-2-methylbenzofuran-3-carboxylic acid]

- melting point: 170 to 172 °C
SMILES: COC(=O)c1c(C)oc2cc(C(O)C(Br)Br)c(OC)cc12 (stereo not shown) [Compound 3a, Methyl 6-(2,2-dibromo-1-hydroxyethyl)-5-methoxy-2-methylbenzofuran-3-carboxylate]
- IC50 [2]: 80 µM
- reduction of viability of HeLa cells [2]: more than 50%
- IC50 ([3]; Homo sapiens, K562, 48 h): 85 µM
- reduction of viability of K562 cells [3]: more than 50%
- IC50 [4]: 85 µM
- reduction of viability of MOLT-4 cells [4]: more than 50%
- IC50 [5]: 67 µM
- cytotoxicity against human normal endothelial cells [5]: cytotoxic

- melting point: 249 to 250 °C
SMILES: COc1cc2c(C(=O)O)c(C)oc2cc1C(C)=O [Compound 3b, 6-Acetyl-5-Methoxy-2-Methylbenzofuran-3-Carboxylic Acid]

- melting point: 223 to 224 °C
SMILES: COc1cc2c(C(N)=O)c(C)oc2cc1C(C)=O [Compound 3c, 6-Acetyl-5-methoxy-2-methylbenzofuran-3-carboxamide]
- cytotoxic properties toward cancer cell lines [1]: did not show the cytotoxic properties; also recorded: loss of cytotoxic properties

SMILES: COC(=O)c1c(CBr)oc2cc(C(C)=O)c(OC)cc12 [Compound 3d, Methyl 6-acetyl-2-(bromomethyl)-5-methoxybenzofuran-3-carboxylate]
- IC50 [2]: 35 µM
- reduction of viability of HeLa cells [2]: more than 50%
- IC50 [3]: 28 µM
- IC50 ([3]; Homo sapiens, K562, 48 h): < 50 µM
- reduction of viability of K562 cells [3]: more than 50%
- IC50 [4]: 55 µM
- reduction of viability of MOLT-4 cells [4]: more than 50%
- IC50 [5]: 6 µM
- cytotoxicity against human normal endothelial cells [5]: cytotoxic
- increase in the activity of caspase 3/7 [6]: minimal, if any
- decrease of cytotoxicity against human cancer cells compared to the lead compounds VIII-X ([1]; compared to lead compounds VIII-X): 5–10 folds

SMILES: COc1cccc2c1C(=O)c1c(O)c3c(c(O)c1C2=O)C[C@@](O)(C(C)=O)C[C@@H]3O[C@H]1C[C@H](N)[C@H](O)[C@H](C)O1 [Daunorubicin, reference compound]
- inhibition of digestion of plasmid DNA with BamH1 / interaction with DNA [7]: completely inhibited

SMILES: CN[C@@H]1C[C@H]2O[C@@](C)([C@@H]1OC)n1c3ccccc3c3c4c(c5c6ccccc6n2c5c31)C(=O)NC4 [staurosporine, reference compound]
- increase in the activity of caspase 3/7 [6]: significantly increased
